# Measured values published in patent US9884818B2, “Sulphamoylpyrrolamide derivatives and the use thereof as medicaments for the treatment of hepatitis B” (Janssen Sciences Ireland UC, priority 2013, dated 2018).
# Columns and labels:
# HBV [1] = experiment: Anti-HBV activity, HepG2.117 inducibly HBV producing cell line (Tet-off), intracellular HBV DNA by realtime PCR; assay type: cell-based; conditions: Hepatitis B virus, HepG2.117, 72 h, HepG2.117 cells, 3 days of treatment, intracellular HBV DNA; read-out: HepG2 117 EC50
# [2] = Cytotoxicity in HepG2 cells, Resazurin viability assay; conditions: human, HepG2 cells, HepG2 4 days CC50 (μM), incubated for 4 days, Resazurin assay
# HBV [3] = experiment: Anti-HBV activity, HepG2.2.15 stable transfected cell line, HBV DNA from secreted virions by realtime PCR; assay type: cell-based; conditions: HepG2.2.15 cells, 6 days of treatment, HBV DNA from secreted virions, read-out: HepG2 2.15 EC50
# [4] = Hepatitis B virus, HepG2.2.15, 144 h
Compound,EC50 (HBV [1]) [µM],CC50 at 4 days [2] [µM],EC50 (HBV [3]; [4]) [µM],EC50 (HBV [3]) [µM]
"Cn1cc(S(=O)(=O)NC2(C)COC2)cc1C(=O)Nc1ccc(F)c(C(F)(F)F)c1 [Compound 43, N-[4-fluoro-3-(trifluoromethyl)phenyl]-1-methyl-4-[(3-methyloxetan-3-yl)-sulfamoyl]pyrrole-2-carboxamide]",0.13,> 25,0.11,–
"CCn1cc(S(=O)(=O)N[C@H]2CCOC2)cc1C(=O)Nc1ccc(F)c(C)c1 [Compound 30, 1-ethyl-N-(4-fluoro-3-methyl-phenyl)-4-[[(3S)-tetrahydrofuran-3-yl]-sulfamoyl]pyrrole-2-carboxamide]",0.33,> 25,0.45,–
"Cn1cc(S(=O)(=O)NC2(C)CC(F)(F)C2)cc1C(=O)Nc1ccc(F)c(C#N)c1 [Compound 245, N-(3-cyano-4-fluoro-phenyl)-4-[(3,3-difluoro-1-methyl-cyclobutyl)sulfamoyl]-1-methyl-1H-pyrrole-2-carboxamide]",0.04,> 25,0.04,–
"Cn1cc(S(=O)(=O)NC2CCCC2(F)F)cc1C(=O)Nc1ccc(F)c(Cl)c1F (single isomer, unassigned) [Compound 236a, N-(3-Chloro-2,4-difluorophenyl)-4-{[2,2-difluorocyclopentyl]sulfamoyl}-1-methyl-1H-pyrrole-2-carboxamide]",0.05,> 25,–,0.02
"Cc1c(S(=O)(=O)N[C@H](C)C(F)(F)F)c(Cl)c(C(=O)Nc2ccc(F)c(C#N)c2)n1C [Compound 282, 3-chloro-N-(3-cyano-4-fluoro-phenyl)-1,5-dimethyl-4-[[(1R)-2,2,2-trifluoro-1-methyl-ethyl]sulfamoyl]pyrrole-2-carboxamide]",0.005,> 25,< 0.005,–
"Cc1c(S(=O)(=O)N[C@H](C)C(F)(F)F)cn(C)c1C(=O)Nc1ccc(F)c(F)c1 [Compound 144, N-(3,4-Difluorophenyl)-1,3-dimethyl-4-{[(1R)-2,2,2-trifluoro-1-methylethyl]sulfamoyl}-1H-pyrrole-2-carboxamide]",0.07,> 25,0.05,–
"CC(C)NS(=O)(=O)c1cc(C(=O)Nc2ccc(F)c(C#N)c2)n(C)c1 [Compound 175, N-(3-Cyano-4-fluorophenyl)-1-methyl-4-[(1-methylethyl)sulfamoyl]-1H-pyrrole-2-carboxamide]",0.13,> 25,0.07,–
"Cn1cc(S(=O)(=O)N[C@H]2CCOC2)cc1C(=O)Nc1cc(F)c(F)c(F)c1 [Compound 26, 1-methyl-[[(3S)-tetrahydrofuran-3-yl]sulfamoyl]-N-(3,4,5-trifluoro-phenyl)pyrrole-2-carboxamide]",0.26,> 25,0.14,–
"Cn1cc(S(=O)(=O)NC(C)(C)C(F)(F)F)cc1C(=O)Nc1ccc(F)c(Cl)c1F [Compound 254, N-(3-chloro-2,4-difluoro-phenyl)-1-methyl-4-[(2,2,2-trifluoro-1,1-dimethyl-ethyl)sulfamoyl]-1H-pyrrole-2-carboxamide]",0.05,> 25,0.05,–
"CC(C)NS(=O)(=O)c1cc(C(=O)Nc2cc(F)c(F)c(Cl)c2)n(C)c1 [Compound 57, N-(3-chloro-4,5-difluoro-phenyl)-4-(isopropylsulfamoyl)-1-methyl-pyrrole-2-carboxamide]",0.05,> 25,0.06,–
"CCC(C)(NS(=O)(=O)c1cc(C(=O)Nc2cc(F)c(F)c(Cl)c2)n(C)c1)C(F)(F)F (single isomer, unassigned) [Compound 165a, N-(3-chloro-4,5-difluoro-phenyl)-1-methyl-4-[[1-methyl-1-(trifluoro-methyl)propyl]sulfamoyl]pyrrole-2-carboxamide]",0.04,9.3,0.15,–
"Cc1cc(NC(=O)c2cc(S(=O)(=O)N[C@H](C)CS(C)(=O)=O)cn2C)ccc1F [Compound 97, N-(4-Fluoro-3-methylphenyl)-1-methyl-4-{[(1R)-1-methyl-2-(methyl-sulfonyl)ethyl]sulfamoyl}-1H-pyrrole-2-carboxamide]",0.03,> 25,0.03,–
"C[C@@H](NS(=O)(=O)c1cc(C(=O)Nc2cccc(Br)c2F)n(C)c1)C(F)(F)F [Compound 206, N-(3-Bromo-2-fluorophenyl)-1-methyl-4-{[(1R)-2,2,2-trifluoro-1-methylethyl]sulfamoyl}-1H-pyrrole-2-carboxamide]",0.09,> 25,0.03,–
"CNC(=O)C1(NS(=O)(=O)c2cc(C(=O)Nc3cc(F)c(F)c(Cl)c3)n(C)c2)CC1 [Compound 115, N-(3-Chloro-4,5-difluorophenyl)-1-methyl-4-{[1-(methylcarbamoyl)cyclopropyl]sulfamoyl}-1H-pyrrole-2-carboxamide]",0.11,> 25,0.3,–
"C[C@@H](NS(=O)(=O)c1cn(C)c(C(=O)Nc2ccc(F)c(Br)c2F)c1F)C(F)(F)F [Compound 184, N-(3-Bromo-2,4-difluorophenyl)-3-fluoro-1-methyl-4-{[(1R)-2,2,2-trifluoro-1-methylethyl]sulfamoyl}-1H-pyrrole-2-carboxamide]",0.006,> 25,0.008,–
"Cn1cc(S(=O)(=O)NC(C)(C)C)c(F)c1C(=O)Nc1ccc(F)c(Cl)c1F [Compound 212, 4-(tert-Butylsulfamoyl)-N-(3-chloro-2,4-difluorophenyl)-3-fluoro-1-methyl-1H-pyrrole-2-carboxamide]",0.04,> 25,0.09,–
"Cn1cc(S(=O)(=O)NC2(C(F)(F)F)CCC2)cc1C(=O)Nc1ccc(F)c(C#N)c1 [Compound 241, N-(3-Cyano-4-fluorophenyl)-1-methyl-4-{[1-(trifluoromethyl)cyclo-butyl]sulfamoyl}-1H-pyrrole-2-carboxamide]",0.01,> 25,0.01,–
"Cn1cc(S(=O)(=O)NC(C)(C)C)c(Cl)c1C(=O)Nc1ccc(F)c(C#N)c1 [Compound 226, 4-(tert-Butylsulfamoyl)-3-chloro-N-(3-cyano-4-fluorophenyl)-1-methyl-1H-pyrrole-2-carboxamide]",0.21,> 25,0.19,–
"CC(C)NS(=O)(=O)c1cn(C)c(C(=O)Nc2ccc(F)c(C#N)c2)c1F [Compound 171, N-(3-Cyano-4-fluorophenyl)-3-fluoro-1-methyl-4-[(1-methylethyl)sulfamoyl]-1H-pyrrole-2-carboxamide]",0.02,> 25,0.02,–
"Cc1c(S(=O)(=O)N[C@H](C)C(F)(F)F)cc(C(=O)Nc2ccc(F)c(Cl)c2)n1C [Compound 138, N-(3-Chloro-4-fluorophenyl)-1,5-dimethyl-4-{[(1R)-2,2,2-trifluoro-1-methylethyl]sulfamoyl}-1H-pyrrole-2-carboxamide]",0.03,> 25,0.1,–
"C[C@H](NS(=O)(=O)c1cc(C(=O)Nc2ccc(F)c(C#N)c2)n(C)c1)C(F)(F)F [Compound 102, N-(3-Cyano-4-fluorophenyl)-1-methyl-4-{[(1S)-2,2,2-trifluoro-1-methylethyl]sulfamoyl}-1H-pyrrole-2-carboxamide]",0.06,> 25,0.06,–
"CC(C)NS(=O)(=O)c1cc(C(=O)Nc2cccc(C#N)c2F)n(C)c1 [Compound 176, N-(3-Cyano-2-fluorophenyl)-1-methyl-4-[(1-methylyl)sulfamoyl]-1H-pyrrole-2-carboxamide]",0.37,> 25,0.5,–
"Cc1c(S(=O)(=O)NC2(C)COC2)cn(C)c1C(=O)Nc1ccc(F)c(C#N)c1 [Compound 152, N-3-Cyano-4-fluoromethyl-4-[(3-methyloxetan-3-yl)sulfamoyl]-1H-pyrrole-2-carboxamide]",0.08,> 25,0.24,–
"C[C@@H](NS(=O)(=O)c1cn(C)c(C(=O)Nc2ccc(F)c(Cl)c2)c1Cl)C(F)(F)F [Compound 222, 3-Chloro-N-(3-chloro-4-fluorophenyl)-1-methyl-4-{[(1R)-2,2,2-trifluoro-1-methylethyl]sulfamoyl}-1H-pyrrole-2-carboxamide]",0.009,> 25,0.004,–
"Cn1cc(S(=O)(=O)NC2(C)COC2)c(Cl)c1C(=O)Nc1ccc(F)c(C#N)c1 [Compound 306, 3-chloro-N-(3-cyano-4-fluoro-phenyl)-1-methyl-4-[(3-methyloxetan-3-yl)sulfamoyl]-pyrrole-2-carboxamide]",0.06,> 25,0.03,–
"Cn1cc(S(=O)(=O)NC2(C)COC2)cc1C(=O)Nc1ccc(F)c(C(F)F)c1 [Compound 39, N-[3-(difluoromethyl)-4-fluoro-phenyl]-1-methyl-4-[(3-methyloxetan-3-yl)sulfamoyl]pyrrole-2-carboxamide]",0.04,> 25,0.05,–
"Cc1c(S(=O)(=O)N[C@@H](C)C(F)(F)F)cn(C)c1C(=O)Nc1ccc(F)c(F)c1 [Compound 146, N-(3,4-Difluorophenyl)-1,3-dimethyl-4-{[(1S)-2,2,2-trifluoro-1-methylethyl]sulfamoyl}-1H-pyrrole-2-carboxamide]",0.04,> 25,0.07,–
